Test results as given in patent US11014904B2, “1,2,4-triazine-3-amine derivative, preparation method therefor, and use thereof in medicine” (Jiangsu Hengrui Medicine Co., Ltd., priority 2017, dated 2021).

Tests used:
[1] = biological target: T1, adenosine A3 receptor (A3R) (Homo sapiens, UniProt P0DMS8); test: Inhibition of the adenosine A3 receptor cAMP signaling pathway in CHO-K1/A3R cells (HTRF); type: cell-based; conditions: for IC50: CHO-K1/A3R cells, cAMP, forskolin 10 μM, 2Cl-IB-MECA 5 nM; for IC50 ratio (A3R/A2aR): selectivity A3R over A2aR
T1 construct: expressed in transfected cells; host or cells: CHO-K1
T1 sequence (P0DMS8 1-318): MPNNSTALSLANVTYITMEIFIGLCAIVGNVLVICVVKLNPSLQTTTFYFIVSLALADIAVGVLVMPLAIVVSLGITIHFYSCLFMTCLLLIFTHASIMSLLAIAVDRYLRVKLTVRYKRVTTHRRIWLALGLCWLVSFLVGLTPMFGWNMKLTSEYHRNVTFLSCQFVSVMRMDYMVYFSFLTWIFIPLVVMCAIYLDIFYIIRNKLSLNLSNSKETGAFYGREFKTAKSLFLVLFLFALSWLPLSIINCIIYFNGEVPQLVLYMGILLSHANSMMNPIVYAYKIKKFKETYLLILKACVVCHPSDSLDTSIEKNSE
Source text: (§1) Determination of the inhibition activity of the compounds of the present invention on the adenosine A2a receptor (A2aR) cAMP signaling pathway, the adenosine A2b receptor (A2bR) cAMP signaling pathway, the adenosine A1 receptor (A1R) cAMP signaling pathway and the adenosine A3 receptor (A3R) cAMP signaling pathway.
(§2) The inhibition activity of the compounds of the present invention on the adenosine A2a receptor (A2aR) cAMP signaling pathway, the adenosine A2b receptor cAMP signaling pathway, the adenosine A1 receptor cAMP signaling pathway and the adenosine A3 receptor cAMP signaling pathway was determined by the following method. The experimental method is briefly described as follows:
2.4 Adenosine A3 Receptor
CHO-K1/A3R cells were cultured in DMEM/F12 medium containing 10% fetal bovine serum and 10 μg/ml puromycin. The cells were digested with the cell separation buffer during the experiment. The cells were resuspended in the balanced salt buffer containing 20 mM HEPES and 0.1% bovine serum albumin and counted, and the cell density was adjusted to 5×10^5 cells/ml. In the 384-well plate, each well was added with 12.5 μl of cell suspension, and 6.25 μl of test compound (4× concentration) formulated with the balanced salt buffer containing 20 mM HEPES, 0.1% bovine serum albumin, 54 μM rolipram and 2.7 U/ml adenosine deaminase, and the plate was incubated at room temperature for 30 minutes. Each well was then added with 6.25 μl of forskolin and 2Cl-IB-MECA (4× concentration) formulated with the balanced salt buffer containing 20 mM HEPES, 0.1% bovine serum albumin, 54 μM rolipram and 2.7 U/ml adenosine deaminase, and the plate was incubated at room temperature for 30 minutes. The final concentrations of the compounds were: 100000, 10000, 1000, 100, 10, 1, 0.1 and 0 nM. The final concentrations of forskolin was 10 μM. The final concentration of 2Cl-IB-MECA was 5 nM. Intracellular cAMP concentration was detected with the cAMP dynamic 2 kit. cAMP-d2 and Anti-cAMP-Eu-Cryptate were diluted respectively with the cAMP lysis buffer at a ratio of 1:4. Each well was added with 12.5 μl of diluted cAMP-d2, followed by addition of 12.5 μl of diluted Anti-cAMP-Eu-Cryptate, and the plate was incubated at room temperature in the dark for 1 hour. The HTRF signal values were read by the PHERAstar multi-function microplate reader.

[2] = biological target: T2, adenosine A2b receptor (A2bR) (Homo sapiens, UniProt P29275); test: Inhibition of the adenosine A2b receptor cAMP signaling pathway in CHO-K1/A2bR cells (HTRF); type: cell-based; conditions: ethyl carbazole 1 μM, Table 2
T2 construct: expressed in transfected cells; host or cells: CHO-K1
T2 sequence (P29275 1-332): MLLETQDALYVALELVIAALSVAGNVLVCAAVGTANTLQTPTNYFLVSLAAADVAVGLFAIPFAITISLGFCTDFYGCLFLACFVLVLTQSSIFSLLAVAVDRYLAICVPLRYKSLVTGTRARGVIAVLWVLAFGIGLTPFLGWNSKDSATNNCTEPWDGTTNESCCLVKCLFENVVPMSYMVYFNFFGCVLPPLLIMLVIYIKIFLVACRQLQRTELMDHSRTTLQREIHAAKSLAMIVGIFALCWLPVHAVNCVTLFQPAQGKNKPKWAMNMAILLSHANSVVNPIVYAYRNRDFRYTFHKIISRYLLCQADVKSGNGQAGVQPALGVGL
Source text: as §1, §2
2.2 Adenosine A2b Receptor
CHO-K1/A2bR cells were cultured in DMEM/F12 medium containing 10% fetal bovine serum and 1 mg/ml G418. The cells were digested with the cell separation buffer during the experiment. The cells were resuspended in the balanced salt buffer containing 20 mM HEPES and 0.1% bovine serum albumin and counted, and the cell density was adjusted to 10^6 cells/ml. In the 384-well plate, each well was added with 5 μl of cell suspension, and 2.5 μl of test compound (4× concentration) formulated with the balanced salt buffer containing 20 mM HEPES, 0.1% bovine serum albumin, 54 μM rolipram and 2.7 U/ml adenosine deaminase, and the plate was incubated at room temperature for 30 minutes. Each well was then added with 2.5 μl of […] (4× concentration) (Torcis, 1691/10) formulated with the balanced salt buffer containing 20 mM HEPES, 0.1% bovine serum albumin, 54 μM rolipram and 2.7 U/ml adenosine deaminase, and the plate was incubated at room temperature for 30 minutes. The final concentrations of the compounds were: 100000, 10000, 1000, 100, 10, 1, 0.1 and 0 nM. The final concentration of […] was 1 μM. Intracellular cAMP concentration was detected with the cAMP dynamic 2 kit. cAMP-d2 and Anti-cAMP-Eu-Cryptate were diluted respectively with the cAMP lysis buffer at a ratio of 1:4. Each well was added with 5 μl of diluted cAMP-d2, followed by addition of 5 μl of diluted Anti-cAMP-Eu-Cryptate, and the plate was incubated at room temperature in the dark for 1 hour. The HTRF signal values were read by the PHERAstar multi-function microplate reader.

Row | Compound | IC50 [1] | IC50 ratio (A3R/A2aR) [1] | IC50 [2]
1 | Cc1ccnc2c(F)cc(-c3nnc(N)nc3-c3ccc(F)cc3)cc12 [Example 20, 6-(8-Fluoro-4-methylquinolin-6-yl)-5-(4-fluorophenyl)-1,2,4-triazin-3-amine] | > 10000 nM | >10^3 | 
2 | [2H]C([2H])([2H])c1ccnc2ccc(-c3nnc(N)nc3-c3ccc(F)cc3)cc12 [Example 22, 5-(4-Fluorophenyl)-6-[4-(trideuteromethyl)-6-quinolinyl]-1,2,4-triazin-3-amine] | > 10000 nM | >10^4 | 7 nM
3 | Cc1ccnc2c(F)cc(-c3nnc(N)nc3-c3ccccc3F)cc12 [Example 31, 6-(8-Fluoro-4-methylquinolin-6-yl)-5-(2-fluorophenyl)-1,2,4-triazin-3-amine] | > 10000 nM | >10^3 | 
4 | CCc1ccnc2ccc(-c3nnc(N)nc3-c3ccc(F)cc3)cc12 [Example 44, 6-(4-Ethylquinolin-6-yl)-5-(4-fluorophenyl)-1,2,4-triazin-3-amine] | > 10000 nM | >10^4 | 
5 | Cc1ncnc2c(F)cc(-c3nnc(N)nc3-c3ccccc3)cc12 [Example 45, 6-(8-Fluoro-4-methylquinazolin-6-yl)-5-phenyl-1,2,4-triazin-3-amine] | > 10000 nM | >10^3 | 25 nM
6 | [2H]C([2H])([2H])c1ncnc2ccc(-c3nnc(N)nc3-c3ccc(F)cc3)cc12 [Example 52, 5-(4-Fluorophenyl)-6-(4-(methyl-d3)quinazolin-6-yl)-1,2,4-triazin-3-amine] | > 10000 nM | >10^4 | 14 nM

Further lines, results first:

Row | IC50 [1] | IC50 ratio (A3R/A2aR) [1] | IC50 [2] | Compound
7 | > 10000 nM | >10^4 |  | Nc1nnc(-c2cc(F)c3ncccc3c2)c(-c2ccccc2)n1 [Example 2, 6-(8-Fluoroquinolin-6-yl)-5-phenyl-1,2,4-triazin-3-amine]
8 | > 10000 nM | >10^4 | 47 nM | Nc1nnc(-c2ccc3ncccc3c2)c(-c2ccccc2)n1 [Example 3, 5-Phenyl-6-(quinolin-6-yl)-1,2,4-triazin-3-amine]
9 | > 10000 nM | >10^4 | 7 nM | Cc1ncnc2ccc(-c3nnc(N)nc3-c3ccccc3)cc12 [Example 15, 6-(4-Methylquinazolin-6-yl)-5-phenyl-1,2,4-triazin-3-amine]
10 | > 10000 nM | >10^4 | 18 nM | Cc1ccnc2c(F)cc(-c3nnc(N)nc3-c3ccccc3)cc12 [Example 16, 6-(8-Fluoro-4-methylquinolin-6-yl)-5-phenyl-1,2,4-triazin-3-amine]
11 | > 10000 nM | >10^4 | 22 nM | Cc1ccnc2ccc(-c3nnc(N)nc3-c3ccccc3F)cc12 [Example 17, 5-(2-Fluorophenyl)-6-(4-methylquinolin-6-yl)-1,2,4-triazin-3-amine]
12 | > 10000 nM | >10^4 |  | Cc1ccnc2ccc(-c3nnc(N)nc3-c3ccc(F)cc3)cc12 [Example 18, 5-(4-Fluorophenyl)-6-(4-methylquinolin-6-yl)-1,2,4-triazin-3-amine]
13 | > 10000 nM | >10^4 | 25 nM | Cc1ncnc2ccc(-c3nnc(N)nc3-c3ccc(F)cc3)cc12 [Example 19, 5-(4-Fluorophenyl)-6-(4-methylquinazolin-6-yl)-1,2,4-triazin-3-amine]
